# Measurements reported in publication PMC8691750, “Euphorbia Factor L2 ameliorates the Progression of K/BxN Serum-Induced Arthritis by Blocking TLR7 Mediated IRAK4/IKKβ/IRF5 and NF-kB Signaling Pathways” (Frontiers in Pharmacology, 2021).
# “And” between values parts separate entries of the source, which are not always exact repeats. Equal values may be shown once.
# Test system: TLR signalling pathway genes
# Assay: Toll-like Receptor Pathway PCR array of ankles
# Format: in vivo, C57BL/6 mice
# Conditions: for S40/SIA (fold change) / log2(fold change) S40/SIA: S40 group vs SIA group
# Experimental: Total RNA was isolated from the right ankles using the TRIzol Reagent (Invitrogen) and purified with RNeasy Mini Kit and RNase-Free DNase Set (Qiagen). RNA quality was determined using a spectrophotometer and was reversely transcribed using Wcgene® mRNA cDNA kit. The complementary DNA was used on the Toll-like Receptor Pathway PCR Array plate (Wcgene® biotech, China).
structure (smiles),measurement,setting,value
"C=C1C(OC(=O)c2ccccc2)CC2C(C=C(C)C(=O)C3(OC(C)=O)CC(C)C(OC(=O)c4ccccc4)C3C1OC(C)=O)C2(C)C (stereo not shown) [EFL2, Euphorbia factor L2]","fold-GAPDH, ACTB","ACTB mRNA relative to GAPDH (内参-GAPDH), individual mice of EFL2 group (S401, S402, S404, S405 = EFL2-1 to -4)",1.058 and 1.072 and 0.8044
same,"fold-GAPDH, B2M","B2M mRNA relative to GAPDH, individual mice of EFL2 group (S401, S402, S404, S405)",0.312 and 0.4388 and 0.3402 and 0.1942
same,"fold-GAPDH, Becn1","Becn1 mRNA relative to GAPDH, individual mice of EFL2 group (S401, S402, S404, S405)",0.001891 and 0.007192 and 0.004096
same,S40/SIA (fold change),Becn1 mRNA,0.2727
same,log2(fold change) S40/SIA,Becn1 mRNA,-1.875
same,"fold-GAPDH, Btk","Btk mRNA relative to GAPDH, individual mice of EFL2 group (S401, S402, S404, S405)",0.002403 and 0.001831 and 0.004678 and 0.001063
same,S40/SIA (fold change),Btk mRNA,0.3155
same,log2(fold change) S40/SIA,Btk mRNA,-1.664
same,"fold-GAPDH, Casp8","Casp8 mRNA relative to GAPDH, individual mice of EFL2 group (S401, S402, S404, S405)",0.01634 and 0.01358 and 0.009475
same,S40/SIA (fold change),Casp8 mRNA,0.2393
same,log2(fold change) S40/SIA,Casp8 mRNA,-2.063
same,"fold-GAPDH, Ccl2","Ccl2 mRNA relative to GAPDH, individual mice of EFL2 group (S401, S402, S404, S405)",0.01529 and 0.00629 and 0.0002036
same,S40/SIA (fold change),Ccl2 mRNA,0.0326
same,log2(fold change) S40/SIA,Ccl2 mRNA,-4.939
same,"fold-GAPDH, Ccl11","Ccl11 mRNA relative to GAPDH, individual mice of EFL2 group (S401, S402, S404, S405)",0.01036 and 0.008836 and 0.01327 and 0.005579
same,S40/SIA (fold change),Ccl11 mRNA,1.864
same,log2(fold change) S40/SIA,Ccl11 mRNA,0.8985
same,"fold-GAPDH, Ccl20","Ccl20 mRNA relative to GAPDH, individual mice of EFL2 group (S401, S402, S404, S405)",3.719e-5 and 0.0001299
same,"fold-GAPDH, Cd14","Cd14 mRNA relative to GAPDH, individual mice of EFL2 group (S401, S402, S404, S405)",0.005751 and 0.00806 and 0.003038 and 0.001749
same,"fold-GAPDH, Cd80","Cd80 mRNA relative to GAPDH, individual mice of EFL2 group (S401, S402, S404, S405)",0.002341 and 0.005041 and 0.0008698
same,"fold-GAPDH, Cd86","Cd86 mRNA relative to GAPDH, individual mice of EFL2 group (S401, S402, S404, S405)",0.0007215 and 0.0005777 and 0.0007714 and 0.0003428
same,S40/SIA (fold change),Cd86 mRNA,0.1925
same,log2(fold change) S40/SIA,Cd86 mRNA,-2.3771
same,"fold-GAPDH, Chuk","Chuk mRNA relative to GAPDH, individual mice of EFL2 group (S401, S402, S404, S405)",0.008767 and 0.01087 and 0.008829
same,S40/SIA (fold change),Chuk mRNA,0.3313
same,log2(fold change) S40/SIA,Chuk mRNA,-1.594
same,"fold-GAPDH, Clec4e","Clec4e mRNA relative to GAPDH, individual mice of EFL2 group (S401, S402, S404, S405)",0.0002637 and 0.002249 and 0.0004993 and 4.1493e-5
same,S40/SIA (fold change),Clec4e mRNA,0.0859
same,log2(fold change) S40/SIA,Clec4e mRNA,-3.541
same,"fold-GAPDH, Cxcl10","Cxcl10 mRNA relative to GAPDH, individual mice of EFL2 group (S401, S402, S404, S405)",2.1064e-5
same,S40/SIA (fold change),Cxcl10 mRNA,0.002337
same,log2(fold change) S40/SIA,Cxcl10 mRNA,-8.741
same,"fold-GAPDH, Eif2ak2","Eif2ak2 mRNA relative to GAPDH, individual mice of EFL2 group (S401, S402, S404, S405)",0.004437 and 0.00565 and 0.003196
same,"fold-GAPDH, Elk1","Elk1 mRNA relative to GAPDH, individual mice of EFL2 group (S401, S402, S404, S405)",0.006009 and 0.005652 and 0.006734 and 0.002589
same,S40/SIA (fold change),Elk1 mRNA,0.3565
same,log2(fold change) S40/SIA,Elk1 mRNA,-1.488
same,"fold-GAPDH, Fadd","Fadd mRNA relative to GAPDH, individual mice of EFL2 group (S401, S402, S404, S405)",0.001977 and 0.0009207 and 0.00158 and 0.0009332
same,S40/SIA (fold change),Fadd mRNA,0.1995
same,log2(fold change) S40/SIA,Fadd mRNA,-2.325
same,"fold-GAPDH, Fos","Fos mRNA relative to GAPDH, individual mice of EFL2 group (S401, S402, S404, S405)",0.02349 and 0.0137 and 0.0143 and 0.009915
same,"fold-GAPDH, HPRT1","HPRT1 mRNA relative to GAPDH, individual mice of EFL2 group (S401, S402, S404, S405)",0.01241 and 0.008273 and 0.01631
same,"fold-GAPDH, Hmgb1","Hmgb1 mRNA relative to GAPDH, individual mice of EFL2 group (S401, S402, S404, S405)",0.3089 and 0.3274 and 0.2681 and 0.1726
same,"fold-GAPDH, Hras1","Hras1 mRNA relative to GAPDH, individual mice of EFL2 group (S401, S402, S404, S405)",0.02419 and 0.02746 and 0.02268 and 0.01475
same,S40/SIA (fold change),Hras1 mRNA,0.4915
same,log2(fold change) S40/SIA,Hras1 mRNA,-1.025
same,"fold-GAPDH, Hspa1a","Hspa1a mRNA relative to GAPDH, individual mice of EFL2 group (S401, S402, S404, S405)",0.03203 and 0.003543 and 0.006228
same,"fold-GAPDH, Hspd1","Hspd1 mRNA relative to GAPDH, individual mice of EFL2 group (S401, S402, S404, S405)",0.02796 and 0.02518 and 0.003019 and 0.01313
same,S40/SIA (fold change),Hspd1 mRNA,0.2339
same,log2(fold change) S40/SIA,Hspd1 mRNA,-2.096
same,"fold-GAPDH, IRF5","IRF5 mRNA in ankles of STA mice, relative to GAPDH, one value per animal (samples S401-S405)",0.004631 and 0.004692 and 0.004033 and 0.001353
same,S40/SIA (fold change),IRF5 mRNA,0.3677
same,log2(fold change) S40/SIA,IRF5 mRNA,-1.443
same,"fold-GAPDH, Ikbkb","Ikbkb mRNA relative to GAPDH, individual mice of EFL2 group (S401, S402, S404, S405)",0.009029 and 0.01266 and 0.01025 and 0.004561
same,"fold-GAPDH, Il1a","Il1a mRNA relative to GAPDH, individual mice of EFL2 group (S401, S402, S404, S405)",0.0002392 and 0.0002831 and 9.48e-5
same,"fold-GAPDH, Il1b","Il1b mRNA relative to GAPDH, individual mice of EFL2 group (S401, S402, S404, S405)",0.005996 and 0.0009616 and 0.0008 and 0.0006699
same,S40/SIA (fold change),Il1b mRNA,0.0229
same,log2(fold change) S40/SIA,Il1b mRNA,-5.448
same,"fold-GAPDH, Il6","Il6 mRNA relative to GAPDH, individual mice of EFL2 group (S401, S402, S404, S405)",0.002971 and 0.0008677 and 0.0003997 and 0.0006556
same,S40/SIA (fold change),Il6 mRNA,0.03478
same,log2(fold change) S40/SIA,Il6 mRNA,-4.845
same,"fold-GAPDH, Il6ra","Il6ra mRNA in ankles of STA mice, relative to GAPDH, one value per animal (samples S401-S405)",0.009397 and 0.01121 and 0.004741
same,"fold-GAPDH, Il10","Il10 mRNA relative to GAPDH, individual mice of EFL2 group (S401, S402, S404, S405)",0.0001425 and 0.0002257 and 7.048e-5 and 9.932e-5
same,S40/SIA (fold change),Il10 mRNA,0.2443
same,log2(fold change) S40/SIA,Il10 mRNA,-2.033
same,"fold-GAPDH, Il12a","Il12a mRNA relative to GAPDH, individual mice of EFL2 group (S401, S402, S404, S405)",0.001377 and 0.0005874 and 0.0009712 and 0.0002213
same,"fold-GAPDH, Ilr1","Ilr1 mRNA in ankles of STA mice, relative to GAPDH, one value per animal (samples S401-S405)",0.01383 and 0.01561 and 0.01023 and 0.00774
same,S40/SIA (fold change),Ilr1 mRNA,0.09556
same,log2(fold change) S40/SIA,Ilr1 mRNA,-3.388
same,"fold-GAPDH, Irak1","Irak1 mRNA in ankles of STA mice, relative to GAPDH, one value per animal (samples S401-S405)",0.02263 and 0.02515 and 0.01545 and 0.008286
same,"fold-GAPDH, Irak2","Irak2 mRNA in ankles of STA mice, relative to GAPDH, one value per animal (samples S401-S405)",0.003024 and 0.004831 and 0.004355 and 0.002516
